In brackets after ≈: the same amount, converted by molar mass.
What was measured:
S. flexneri 2457T [1] = test: microbe, parasite or virus in culture; assay type: cell-based, Shigella flexneri; settings: Shigella flexneri, 2457T
Description: Bacterial inoculum without drug was used as positive control. The bacteria inoculum (1 × 10^5 CFU/mL) for the assay was prepared by diluting a log phase incubated at 37 °C for 3–4 hr. Mueller Hinton agar plates were prepared containing 4xMIC and 10xMIC and inoculated with different concentrations of bacteria (1 × 10^9, 1 × 10^8, and 1 × 10^7 CFU/mL). Plates were prepared in duplicate and incubated overnight at 37 °C. The frequency of spontaneous resistant mutants was calculated by using the formula: FoR = resistant CFUs/inoculum CFUs. The mean of the two plates was reported.

Shigella flexneri 2457T = test: Resazurin growth inhibition, dose response (IC50/IC90) in Müller Hinton medium; assay type: cell-based; settings: ATCC700930
Description: We developed a high-throughput screening (HTS) method to identify compounds that could inhibit the growth of Shigella flexneri 2457T in Müller Hinton medium (Sigma Aldrich, UK). We adapted a resazurin reduction protocol from Franzblau et al. as surrogate readout for bacterial viability because it provided a stable signal, a low interference level, and was cost effective ([Franzblau et al., 1998]). Prior to the day of experimentation, one colony was used to inoculate 50 mL Mueller Hinton medium, and the culture was incubated overnight at 37 °C. The next day, 500 μL of the bacterial culture were inoculated into 50 mL fresh Mueller Hinton medium and bacterial growth was measured periodically at 600 nm. When the culture reached OD = 0.4–0.6, the inoculum was diluted to 1 × 10^6 CFU/mL; this bacterial suspension was added to compound pre-dispensed plates for screening.
The assay was performed in 1536-well polystyrene assay plates (HiBase, μClear, Greiner Bio‐One) and used to screen ~1.7 million compounds from (a) GSK naïve chemical diversity, (b) GSK antibacterial programs, and (c) marketed antimicrobial agents. All commercially available chemicals were purchased from either Sigma Aldrich, UK, AK Scientific, or Fischer Chemicals. The GSK compound screening set was sub-selected from the 8 million compound GSK collection using the principles described by Harper and co-workers ([Harper et al., 2004]). The process to generate the structural filters to remove compounds bearing undesirable/reactive chemotypes and/or non-developable physicochemical properties has been described previously by [Chakravorty et al., 2018]. […]. The set of marketed antibacterial agents included most commercial antimicrobial agents.
For screening, plates were prepared by dispensing 50 nl of compound from master plates at 1 mM in each well using a LabCyte Echo system. The final assay volume was 5 μl and the final compound concentration was 10 µM. The 11th and 12th columns were growth controls containing 50 nL of DMSO. The 34th and 35th columns contained 50 nL of Moxifloxacin at 20 μM as negative growth controls. Five µl of bacterial inoculum was dispensed into compound pre-dispensed plates using a Multidrop Combi dispenser (Thermo Scientific). Plates were agitated for 10 s to ensure mixing and incubated at 37 °C overnight (16–17 hr). Following overnight culture, 2 µl resazurin solution (Resazurin tablets for milk testing, BDH) was added to each well and incubated at room temperature in the dark for 3 hr. Fluorescence intensity was measured using an Envision plate reader (PerkinElmer). […] Data were analysed using Base software and statistical cut-off analysis was used for ‘hit’ selection following a standard GSK protocol. To calculate the statistical cut-off, percentage growth inhibition was calculated per well according to the plate controls, these values were aggregated to calculate the robust mean and standard deviation (SD) of the distribution. The robust mean was calculated starting from the median and the MAD of the distribution with an iterative process that aimed to remove outliers. Once the mean and SD were calculated, all compounds above mean + 3 SD were selected as primary hits.
After the initial screen, we generated fresh samples of the primary compound hits and tested them in duplicate against S. flexneri 2457T at 10 μM to confirm activity. The confirmed hit list was narrowed by applying the following filters: a 30% cut-off value, absence of undesirable structural features (e.g. electrophiles, peroxides, and Michael acceptors) and reduced physicochemical risk (maximum five aromatic rings and PFI <8)([Leeson and Young, 2015]). […].

S. flexneri EG478 = test: Solid medium test at 10 µM and dose-response MIC against MDR clinical isolate; assay type: cell-based, Shigella flexneri; settings: for bactericidal activity: MDR clinical isolate S. flexneri EG478; for MIC range: range over S. flexneri EG478 and S. sonnei 02-1181
Description: (§1) The confirmed hit list was narrowed by applying the following filters: a 30% cut-off value, absence of undesirable structural features (e.g. electrophiles, peroxides, and Michael acceptors) and reduced physicochemical risk (maximum five aromatic rings and PFI <8)([Leeson and Young, 2015]). […] Briefly, the selected bacteria were cultured on the Luria-Bertani agar overnight at 37 °C (Campylobacter isolates were grown in 2.5% Laked Horse Blood cation-adjusted Mueller Hinton medium (CAMHB, Sigma Aldrich) and incubated in microaerophilic conditions (10% CO2, 5% O2 and 85% N2) at 42 °C); colonies were added to sterile PBS to form 0.5 McFarland solutions. All chemical testing was performed at an initial concentration of 10 μM. Bacterial suspensions were evenly spread on Mueller-Hinton agar by sterile cotton swabs (Medical Wire – MWE). […] Plates were incubated overnight at 37 °C. The activity of the chemical was recorded as being active (yes) or non-active (no) for each of the tested chemicals.
(§2) MICs were evaluated using the micro dilution assay in Müller Hinton broth using 1 mM chemical stock solutions, and a final concentration of 5 × 10^5 CFU/mL bacteria. Twofold serial dilutions were prepared in 96-well plates at concentration ranging from 1 μM to 7.8 nM. 100 μL bacteria were added and incubated at 37 °C overnight; 10 μl of each solution was dropped onto Luria-Bertani agar and incubated overnight at 37 °C for the detection of bacterial growth. Results were interpreted as minimal concentration necessary to inhibit growth.

S. sonnei 02–1181 = test: as above; assay type: cell-based, Shigella sonnei
Description: as §1, §2

[2] = Intestinal distribution by MALDI imaging in mice; assay type: in vivo
Description: One animal was euthanised at 0.25, 0.5, 1, and 4 hr respectively and 2.5–3 cm sections of the intestine (duodenum, jejunum, ileum, caecum, and colon) were collected and frozen at –80 °C. For quantitative LCMS analysis of intestine homogenate, samples were thawed at ambient temperature, mixed with water (1:1) and homogenised by turrax (10 sec). Subsequently, 20 µL of homogenate were mixed with 200 µl of ACN: MeOH (80:20) and filtered using 0.2 µm filter plate (Whatman). LCMS analysis was performed as described in previous section. For MALDI imaging, 50 mm of the central part of each intestinal section were cut and mounted in a sample disc on dry ice with a solution of 1% methylcellulose (Sigma Aldrich, UK). Next, tissue sections of 12 µm (sagital sections) were obtained using a cryostat (Leica CM3600; Leica Microsystems Inc, Wetzlar, Germany) at –20 °C and collected in conductive-coated slides for MALDI Imaging (Bruker Daltonic). After the ‘MALDI’ section was obtained a consecutive section for histology was taken. Prior to matrix coating, samples for MALDI were optical scanned in a PathScanner. The matrix deposition was conducted in a sprayer ImagePrep System (Bruker Daltonic) which uses vibrational vaporisation technology. As matrix solution α-CHCA (α-Cyano-4-hydroxycinnamic acid (Sigma Aldrich) dissolved in 70:30 methanol/water (v/v) containing 0.2% TFA at 7 mg/mL was used. MALDI MSI data were obtained using a Bruker UltrafleXtream MALDI TOF/TOF (Bruker Daltonic, Germany)).
Both compounds were analysed in positive mode using a LIFT method. For Tebipenem, parent compound was 384.32 and the detection mass window between m/z 0–400. 298.164 were the most intensive fragment. […] We used a laser shut at 85% power with a 50 μm step size, 100 times at raster spot in random wak mode. FlexImaging 4.1(bruker Daltoninc, Germany) were used for the data visualisation. […]
MALDI Imaging is not a quantitative technique, therefore, the colour scale of images is relative to the maximum intensity (100 corresponds with the maximal signa in each slide). […]

S. flexneri 2457T [3] = test: Gnotobiotic piglet Shigella infection model, efficacy; assay type: in vivo; settings: piglets
S. flexneri 2457T [4] = assay type: in vivo; settings: mice, 40 mg/kg PO, 24 hr post infection, limit of quantification 80

In the case of `CC1(C)S[C@@H]2[C@H](NC(=O)[C@H](N)c3ccccc3)C(=O)N2[C@H]1C(=O)O` [Ampicilin], the MIC (S. flexneri 2457T [1]) was 7.5 µM (≈ 2.62 µg/mL).
With `CC[C@H]1OC(=O)[C@H](C)[C@@H](O[C@H]2C[C@@](C)(OC)[C@@H](O)[C@H](C)O2)[C@H](C)[C@@H](O[C@@H]2O[C@H](C)C[C@H](N(C)C)[C@H]2O)[C@](C)(O)C[C@@H](C)CN(C)[C@H](C)[C@@H](O)[C@]1(C)O` [Azithromycin] the IC90 (Shigella flexneri 2457T) was 7.49 µg/mL (≈ 10 µM).
For `C[C@@H](O)[C@H]1C(=O)N2C(C(=O)O)=C(S[C@@H]3CN[C@H](C(=O)N(C)C)C3)[C@H](C)[C@H]12` [Meropenem], the bactericidal activity (S. flexneri EG478) was “greatest bactericidal activity”, the MIC range (S. flexneri EG478) was 0.15 µg/mL (≈ 0.391 µM) and the bactericidal activity (S. sonnei 02–1181) was “greatest bactericidal activity”.
Compound `CC1(C)S[C@@H]2[C@H](/N=C/N3CCCCCC3)C(=O)N2[C@H]1C(=O)O` [Mecillinam] has an MIC (S. flexneri 2457T [1]) of 0.2 µM (≈ 0.0651 µg/mL) and an IC90 (Shigella flexneri 2457T) of 0.058 µg/mL (≈ 0.178 µM).
`C[C@@H](O)[C@H]1C(=O)N2C(C(=O)O)=C([C@H]3CCCO3)S[C@H]12` [Faropenem] showed an MIC range (S. flexneri EG478) of 2.5 to 6.25 µg/mL.
For `COc1c(N2C[C@@H]3CCCN[C@@H]3C2)c(F)cc2c(=O)c(C(=O)O)cn(C3CC3)c12` [Moxifloxacin], the MIC (S. flexneri 2457T [1]) was 0.2 µM (≈ 0.0803 µg/mL).
With `C[C@@H](O)[C@H]1C(=O)N2C(C(=O)O)=C(S[C@@H]3CN[C@H](C(=O)Nc4cccc(C(=O)O)c4)C3)[C@H](C)[C@H]12` [Ertapenem] the bactericidal activity (S. flexneri EG478) was “greatest bactericidal activity”, the MIC range (S. flexneri EG478) was 0.04 to 0.15 µg/mL and the bactericidal activity (S. sonnei 02–1181) was “greatest bactericidal activity”.
With `CO[C@H]1/C=C/O[C@@]2(C)Oc3c(C)c(O)c4c(O)c(c(/C=N/N5CCN(C)CC5)c(O)c4c3C2=O)NC(=O)/C(C)=C\C=C\[C@H](C)[C@H](O)[C@@H](C)[C@@H](O)[C@@H](C)[C@H](OC(C)=O)[C@@H]1C` [Rifampicin] the MIC (S. flexneri 2457T [1]) was 3.7 µM (≈ 3.04 µg/mL).
In the case of `C[C@@H](O)[C@H]1C(=O)N2C(C(=O)OCOC(=O)C(C)(C)C)=C(SC3CN(C4=NCCS4)C3)[C@H](C)[C@H]12` [Tebipenem pivoxil], the “MALDI detection in the intestinal lumen” value ([2]; 60 min after oral pro-drug) was “not detectable in the lumen”, the “MALDI detection within enterocytes” value ([2]; after oral pro-drug) was “not detected within enterocytes” and the “histopathology of the large intestine vs placebo” value (S. flexneri 2457T [3]; day six post infection) was “marked reduction in intestinal lesions and inflammation”. For the same compound, the “CFU/g Shigella in stool” value (S. flexneri 2457T [3]; single dose given 24 hr after infection, from 1 × 10^7, within 24 hr) was “zero”.
For `CO/N=C(\C(=O)N[C@@H]1C(=O)N2C(C(=O)O)=C(CSc3nc(=O)c(=O)[nH]n3C)CS[C@H]12)c1csc(N)n1` [Ceftriaxone], the MIC (S. flexneri 2457T [1]) was 0.2 µM (≈ 0.111 µg/mL) and the IC90 (Shigella flexneri 2457T) was 0.067 µg/mL (≈ 0.121 µM).
With `O=C(O)c1cn(C2CC2)c2cc(N3CCNCC3)c(F)cc2c1=O` [Ciprofloxacin] the MIC (S. flexneri 2457T [1]) was 0.06 µM (≈ 0.0199 µg/mL), the IC90 (Shigella flexneri 2457T) was 0.02 µg/mL (≈ 0.0604 µM) and the “S. flexneri CFUs in gastrointestinal tissue” value (S. flexneri 2457T [4]) was under 80 CFU.
